One data set deals with T1, Androgen Receptor (AR) (Homo sapiens, UniProt P10275).
T1 sequence (P10275 669-900 limits assumed): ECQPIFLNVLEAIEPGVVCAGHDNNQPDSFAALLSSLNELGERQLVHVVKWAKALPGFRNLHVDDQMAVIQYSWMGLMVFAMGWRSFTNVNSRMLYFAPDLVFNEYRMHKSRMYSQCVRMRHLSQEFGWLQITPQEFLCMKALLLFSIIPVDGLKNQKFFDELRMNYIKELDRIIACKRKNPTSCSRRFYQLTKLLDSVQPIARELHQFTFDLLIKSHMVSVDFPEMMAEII
The data set is described as follows: GeneBLAzer nuclear hormone receptor specificity assay, AR. The format is cell-based. To be noted: 0.25 to 25 μM; listed as ISP358-2.

Another data set deals with ovariectomized mice. The data set is described as follows: Peripheral tissue pathology (H&E of liver, kidney, heart). The format is in vivo. To be noted: 24 h after single IP injection; 0.5 or 5 mg/kg ISP358-2, 0.05 mg/kg DPN. On the procedure: Assessment of Potential Peripheral Pathology. To assess possible toxicity of ISP358-2 treatment to peripheral organs, ovariectomized mice received a single intraperitoneal injection of vehicle or ISP358-2, and liver, kidney, and heart tissues were collected 24 hours later. […] Tissues were fixed in 10% formalin buffered solution for 24 hours. Twenty specimens were processed and analyzed. Each specimen contained three pieces of tissue. The tissues from each animal was transferred to a labeled cassette and processed on an automated tissue processor following standard procedures. The tissues were then embedded in paraffin wax. No specific orientation of the tissue was performed. Four-micron sections were cut from each paraffin block and placed onto a slide. The slides were then stained using hematoxylin and cosin (H&E) on an automated stainer (FIGS. 13A-13L). The slides were then examined by a pathologist (ACM) who is board certified in anatomical pathology by the American Board of Pathology. All specimens contained three tissue samples corresponding to liver, kidney, and heart. In some instances, portions of adjacent tissues were also present. […] For heart, the myocytes and coronary vessels were examined, (2) evidence of inflammation was evaluated including hepatitis, glomerulonephritis, interstitial nephritis, and myocarditis, and (3) evidence of ischemic changes was examined. […]

For another data set, the target named is T2, CYP3A4 (Homo sapiens, UniProt P08684).
T2 construct: purchased Promega Corporation (Madison, WI)
The data set is described as follows: P450-Glo CYP450 inhibition, CYP3A4. The format is in vitro ADME. To be noted: highest concentration 62.6 μM. On the procedure:
In Vitro Druggability Assays-CYP450 Binding, hERG & Nephelometry. The P450-Glo™ Screening System from Promega Corporation (Madison, WI) was used to measure CYP450 (cytochrome P450) inhibition, as described in the kit instructions. Assays were run in 96-well white plates (Corning® 3912), and luminescence was measured on a SpectraMax M5 instrument (FIG. 6). The luminescence signal is proportional to the amount of luciferin product formed by the CYP reaction. Compounds were prepared in DMSO, then an eight-step 1:2 dilution series was made in DMSO. […] After adding the relevant Cytochrome P450 enzyme, the plate was incubated at 37° C. for 10 minutes to allow components to come to temperature. Next, the NADPH regeneration system was added to activate the reaction on a luminogenic P450-GloTM substrate, and incubated at 37° C. for 10-30 min, according to kit instructions for each CYP enzyme. The enzyme reaction was stopped by the addition of Luciferin Detection Reagent and luminescence of the plate was read in a Spectramax M5 (Molecular Devices) after a 20 min incubation at room temperature. Data were normalized to positive controls (α-naphthoflavone for CYP1A2, sulfaphenazole for CYP2C9, quinidine for CYP2D6, and ketoconazole for CYP3A4). Data analysis was with Prism software, as described above.

In data set [1] the target is T3, Progesterone Receptor (PR) (Homo sapiens, UniProt P06401).
T3 sequence (P06401 679-913 limits assumed): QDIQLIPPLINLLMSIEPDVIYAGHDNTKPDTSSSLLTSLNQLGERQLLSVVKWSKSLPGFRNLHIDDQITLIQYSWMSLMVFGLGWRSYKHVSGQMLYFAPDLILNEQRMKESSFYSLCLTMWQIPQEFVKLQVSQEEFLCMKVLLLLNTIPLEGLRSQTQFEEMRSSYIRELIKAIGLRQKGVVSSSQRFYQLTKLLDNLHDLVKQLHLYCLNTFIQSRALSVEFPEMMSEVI
The data set is described as follows: GeneBLAzer nuclear hormone receptor specificity assay, PR. The format is cell-based. The note with it: 0.25 to 25 μM; listed as ISP358-2. On the procedure:
(§1) Nuclear Hormone Receptor Specificity Assay. Selectivity measurements were performed using the SelectScreen™ cell-based nuclear receptor profiling service from ThermoFisher (FIG. 3A). This is a FRET-based assay that uses GeneBLAzer™ technology. It detects ligand binding to and activation of a nuclear hormone receptor of interest (ligand binding domain; LBD) that is fused to a GAL4 DNA binding domain (DBD), which upon activation induces expression of beta-lactamase. The assay has a Z′≥0.5 in agonist mode. […]

Data set [2] has as its target T4, Peroxisome Proliferator-Activated Receptor (PPARδ) (Homo sapiens, UniProt Q03181).
T4 sequence (Q03181 211-439 limits assumed): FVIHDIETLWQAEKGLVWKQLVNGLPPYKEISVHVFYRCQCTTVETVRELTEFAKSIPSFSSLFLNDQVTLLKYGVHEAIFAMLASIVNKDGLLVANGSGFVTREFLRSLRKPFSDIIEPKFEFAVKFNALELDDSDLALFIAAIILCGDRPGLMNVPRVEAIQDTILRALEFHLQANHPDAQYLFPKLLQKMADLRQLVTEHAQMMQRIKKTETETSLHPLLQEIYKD
The data set is described as follows: GeneBLAzer nuclear hormone receptor specificity assay, PPARδ. To be noted: 0.25 to 25 μM; listed as ISP358-2. The format is cell-based. On the procedure: as §1

The target in data set [3] is T5, Mineralocorticoid Receptor (MR) (Homo sapiens, UniProt P08235).
T5 sequence (P08235 726-964 limits assumed): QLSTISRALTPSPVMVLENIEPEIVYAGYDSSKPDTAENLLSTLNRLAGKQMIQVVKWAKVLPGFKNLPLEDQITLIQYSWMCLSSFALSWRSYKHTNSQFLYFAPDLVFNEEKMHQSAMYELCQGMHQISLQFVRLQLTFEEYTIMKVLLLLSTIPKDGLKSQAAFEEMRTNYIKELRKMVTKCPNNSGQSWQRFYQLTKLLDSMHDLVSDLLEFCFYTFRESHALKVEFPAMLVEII
The data set is described as follows: GeneBLAzer nuclear hormone receptor specificity assay, MR. The format is cell-based. To be noted: 0.25 to 25 μM; listed as ISP358-2.

Entries after “also recorded” stand apart in the source; their conditions may differ.

These results are taken from US20240327421A1 (Marquette University, priority 2017, published 2024).

T2 sequence (P08684 whole entry): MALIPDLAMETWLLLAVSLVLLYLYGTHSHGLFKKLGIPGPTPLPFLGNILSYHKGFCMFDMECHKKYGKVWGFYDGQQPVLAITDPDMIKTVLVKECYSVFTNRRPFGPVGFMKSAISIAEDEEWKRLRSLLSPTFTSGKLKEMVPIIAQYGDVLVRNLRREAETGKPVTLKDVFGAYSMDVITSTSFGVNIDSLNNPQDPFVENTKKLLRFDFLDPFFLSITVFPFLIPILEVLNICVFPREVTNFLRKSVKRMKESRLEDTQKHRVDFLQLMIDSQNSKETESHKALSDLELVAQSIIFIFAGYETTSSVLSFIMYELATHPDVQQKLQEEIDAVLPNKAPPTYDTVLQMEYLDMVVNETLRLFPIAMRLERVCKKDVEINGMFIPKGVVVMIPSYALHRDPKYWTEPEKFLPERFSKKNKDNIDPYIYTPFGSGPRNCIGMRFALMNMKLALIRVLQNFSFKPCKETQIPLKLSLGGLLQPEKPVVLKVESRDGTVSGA

For orientation: IC50 means the concentration that gives 50% inhibition. High values mean lower potency, low ones higher potency. Consider `OC[C@H]1CC[C@H](c2ccc(O)cc2)CC1` [Compound 16], for which the “agonist activity, AR” value at Androgen Receptor (AR) is “not an agonist; also recorded: no significant off-target activity”. For the same molecule, in the data set with ovariectomized mice, the “histological abnormalities / peripheral toxicity in liver, kidney, heart” value is listed as “unremarkable; also recorded: no obvious signs of peripheral toxicity; also recorded: Histological abnormalities were not detected”. In addition, at CYP3A4, the CYP3A4 inhibition result is recorded as “no significant inhibition” and it took 89 ± 18 µM to reach half-maximal inhibition (IC50). For the same molecule, in data set [1], the “agonist activity, PR” value was “not an agonist; also recorded: no significant off-target activity”. The “agonist activity, PPARδ” value in data set [2] was “not an agonist; also recorded: no significant off-target activity”. For the same molecule, the “agonist activity, MR” value in data set [3] is on record as “not an agonist; also recorded: no significant off-target activity”.
